US20260146035A1, “FUSED BICYCLIC COMPOUNDS AND THEIR USE AS MER AND AXL INHIBITORS” (DONG-A ST CO., LTD., priority 2022, published 2026)
Read-outs that look alike come from different tables or passages of the source.

What was measured:
human MER (528-end) = target: T1, human MER (528-end) (Homo sapiens, UniProt Q12866); experiment: HTRF kinase activity biochemical assay, MER
T1 construct: human MER (528-end); purchased Camnabio, Japan
T1 sequence (Q12866 528-999 limits assumed): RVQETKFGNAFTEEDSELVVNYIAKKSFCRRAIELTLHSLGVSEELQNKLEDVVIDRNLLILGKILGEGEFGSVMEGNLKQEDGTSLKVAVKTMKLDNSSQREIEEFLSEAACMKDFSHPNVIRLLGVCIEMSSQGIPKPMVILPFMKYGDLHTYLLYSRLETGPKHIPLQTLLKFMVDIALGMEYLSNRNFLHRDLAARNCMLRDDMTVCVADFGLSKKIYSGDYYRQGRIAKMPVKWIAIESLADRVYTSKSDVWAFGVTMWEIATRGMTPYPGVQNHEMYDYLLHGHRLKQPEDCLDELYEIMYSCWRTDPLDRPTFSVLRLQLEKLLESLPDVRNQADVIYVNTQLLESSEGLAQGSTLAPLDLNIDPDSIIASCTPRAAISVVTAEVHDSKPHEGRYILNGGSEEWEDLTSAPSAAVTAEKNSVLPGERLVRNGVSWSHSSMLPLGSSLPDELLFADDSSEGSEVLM

human AXL (473-end) = target: T2, human AXL (473-end) (Homo sapiens, UniProt P30530); experiment: HTRF kinase activity biochemical assay, AXL
T2 construct: human AXL (473-end); purchased SignalChem, Canada
T2 sequence (P30530 473-894 limits assumed): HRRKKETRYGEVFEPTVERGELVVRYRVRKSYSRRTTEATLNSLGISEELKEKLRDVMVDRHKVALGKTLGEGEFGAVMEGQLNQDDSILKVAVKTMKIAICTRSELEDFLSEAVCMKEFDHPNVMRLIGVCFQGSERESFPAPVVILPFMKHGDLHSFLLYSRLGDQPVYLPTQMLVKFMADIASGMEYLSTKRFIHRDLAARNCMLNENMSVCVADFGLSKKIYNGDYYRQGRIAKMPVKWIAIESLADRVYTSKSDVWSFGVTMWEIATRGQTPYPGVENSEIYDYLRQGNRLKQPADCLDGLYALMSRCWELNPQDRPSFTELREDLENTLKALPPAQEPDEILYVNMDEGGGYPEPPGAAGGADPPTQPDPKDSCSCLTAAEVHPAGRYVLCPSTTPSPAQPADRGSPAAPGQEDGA

human TYRO3 (455-end) = target: T3, human TYRO3 (455-end) (Homo sapiens, UniProt Q06418); experiment: HTRF kinase activity biochemical assay, TYRO3; settings: 10 μM ATP, 30 minutes pre-incubation; read-out: HTRF TYRO IC50
T3 construct: TYRO3 (455-end); purchased SignalChem, Canada
T3 sequence (Q06418 455-890 limits assumed): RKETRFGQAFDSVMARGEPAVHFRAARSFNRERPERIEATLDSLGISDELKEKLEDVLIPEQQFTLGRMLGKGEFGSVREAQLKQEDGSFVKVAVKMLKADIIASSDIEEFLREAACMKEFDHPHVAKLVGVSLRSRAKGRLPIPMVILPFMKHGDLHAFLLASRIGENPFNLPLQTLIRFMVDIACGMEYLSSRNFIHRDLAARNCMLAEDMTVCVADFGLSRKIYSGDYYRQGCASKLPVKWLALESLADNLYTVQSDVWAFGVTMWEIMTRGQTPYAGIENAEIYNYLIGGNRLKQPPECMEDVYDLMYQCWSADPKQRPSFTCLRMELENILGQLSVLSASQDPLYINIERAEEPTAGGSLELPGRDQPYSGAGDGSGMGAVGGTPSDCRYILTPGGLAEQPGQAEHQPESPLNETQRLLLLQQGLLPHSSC

[1] = system: phospho-MerTK in BaF3.MerTK tumors; experiment: In vivo Ba/F3 pMER ALISA assay; settings: orally; for % inhibition: 50 milligrams per kilogram, single dose, tumors harvested 4 hours after, phospho-MerTK normalized to total MerTK; for % inhibition in the in vivo Ba/F3 pMer ALISA Assay: as shown in Tables 3 and 4: 50 milligrams per kilogram
Protocol: BaF3.MerTK tumor cells were mixed with 50% Matrigel (BD, Franklin Lakes, NJ). […] Tumors were allocated into dose groups at 10 to 11 days post tumor cell inoculation, when they were roughly 250-400 mm^3 in size. Test compounds were formulated in 10% ethanol, 30% PEG-400, and 60% Phosal-50PG, for oral dosing at 0.2 mL per dose per mouse. Plasma and tumors were harvested 4 hours after a single dose. Ba/F3 tumors were harvested into 2 mL Precellys CKmix tubes, snap frozen in liquid nitrogen, and stored at −80° C. overnight. […] Precellys tubes were then centrifuged at >18,000 g for 20 minutes at 4° C. and the supernatant was collected on ice. The lysate was then centrifuged again at >18,000 g for 10 minutes at 4° C. to remove any residual debris. […] Plates were then frozen at −80° C. overnight.

[2] = 10 μM ATP, 30 minutes pre-incubation, read-out: HTRF MERTK IC50
[3] = 10 μM ATP, 30 minutes pre-incubation
[4] = in vitro, read-out: HTRF MerTK IC50

| SMILES | IC50 (human MER (528-end); [2]) | IC50 (human AXL (473-end); [3]) | IC50 (human TYRO3 (455-end)) | IC50 (human MER (528-end); [4]) | IC50 (human AXL (473-end); in vitro) | % inhibition [1] | % inhibition in the in vivo Ba/F3 pMer ALISA Assay [1] |
| --- | --- | --- | --- | --- | --- | --- | --- |
| Nc1ncc(-c2ccc(F)nc2)cc1C(=O)N[C@H]1CCC[C@@H]1OCc1ccc(-c2ccc3c(c2)CC[C@@H]3N2CCN(CCO)CC2)cc1 [Example 46, 6-amino-6′-fluoro-N-{(1S,2S)-2-[(4-{(1S)-1-[4-(2-hydroxyethyl)piperazin-1-yl]-2,3-dihydro-1H-inden-5-yl}phenyl)methoxy]cyclopentyl}[3,3′-bipyridine]-5-carboxamide] | < 10 nM | < 10 nM | 10 to 100 nM | – | – | 37% | – |
| Nc1ncc(-c2ccc(F)nc2)cc1C(=O)N[C@H]1CCC[C@@H]1OCc1ccc(-c2ccc3c(c2)CC[C@@H]3N2CCN3C[C@H](O)C[C@H]3C2)cc1 [Example 117, 6-amino-6′-fluoro-N-{(1S,2S)-2-[(4-{(1S)-1-[(7R,8aS)-7-hydroxyhexahydropyrrolo[1,2-a]pyrazin-2 (1H)-yl]-2,3-dihydro-1H-inden-5-yl}phenyl)methoxy]cyclopentyl}[3,3′-bipyridine]-5-carboxamide] | < 10 nM | < 10 nM | 100 to 1000 nM | – | – | 64% | – |
| CN1CCN(C2CCCc3cc(-c4ccc(CO[C@H]5CCC[C@@H]5NC(=O)c5cc(-c6cnn(C)c6)cnc5N)cc4)ccc32)CC1 (stereo partly drawn) [Example 120, 2-amino-N-[(1S,2S)-2-({4-[5-(4-methylpiperazin-1-yl)-5,6,7,8-tetrahydronaphthalen-2-yl]phenyl}methoxy)cyclopentyl]-5-(1-methyl-1H-pyrazol-4-yl)pyridine-3-carboxamide] | < 10 nM | < 10 nM | 10 to 100 nM | – | – | 67% | – |
| COc1ccc(-c2cnc(N)c(C(=O)N[C@H]3CCC[C@@H]3OCc3ccc(-c4ccc5c(c4)CC[C@@H]5N4CCN(CCO)CC4)cc3)c2)cn1 [Example 151, 6-amino-N-{(1S,2S)-2-[(4-{(1S)-1-[4-(2-hydroxyethyl)piperazin-1-yl]-2,3-dihydro-1H-inden-5-yl}phenyl)methoxy]cyclopentyl}-6′-methoxy[3,3′-bipyridine]-5-carboxamide] | < 10 nM | < 10 nM | 10 to 100 nM | – | – | 66% | – |
| Nc1ncc(-c2ccccn2)cc1C(=O)N[C@H]1CCC[C@@H]1OCc1ccc(-c2ccc3c(c2)CC[C@@H]3N2CCN(CCO)CC2)cc1 [Example 177, 6′-amino-N-{(1S,2S)-2-[(4-{(1S)-1-[4-(2-hydroxyethyl)piperazin-1-yl]-2,3-dihydro-1H-inden-5-yl}phenyl)methoxy]cyclopentyl}[2,3′-bipyridine]-5′-carboxamide] | < 10 nM | < 10 nM | 10 to 100 nM | – | – | – | – |
| COc1cccc(-c2cnc(N)c(C(=O)N[C@H]3CCC[C@@H]3OCc3ccc(-c4ccc5c(c4)CC[C@@H]5N4CCN(CCO)CC4)cc3)c2)n1 [Example 178, 6′-amino-N-{(1S,2S)-2-[(4-{(1S)-1-[4-(2-hydroxyethyl)piperazin-1-yl]-2,3-dihydro-1H-inden-5-yl}phenyl)methoxy]cyclopentyl}-6-methoxy[2,3′-bipyridine]-5′-carboxamide] | < 10 nM | < 10 nM | 10 to 100 nM | – | – | – | – |
| COc1nc(-c2cnc(N)c(C(=O)N[C@H]3CCC[C@@H]3OCc3ccc(-c4ccc5c(c4)CC[C@@H]5N4CCN(CCO)CC4)cc3)c2)cs1 [Example 179, 2-amino-N-{(1S,2S)-2-[(4-{(1S)-1-[4-(2-hydroxyethyl)piperazin-1-yl]-2,3-dihydro-1H-inden-5-yl}phenyl)methoxy]cyclopentyl}-5-(2-methoxy-1,3-thiazol-4-yl)pyridine-3-carboxamide] | < 10 nM | < 10 nM | 10 to 100 nM | – | – | – | – |
| Cc1nc(-c2cnc(N)c(C(=O)N[C@H]3CCC[C@@H]3OCc3ccc(-c4ccc5c(c4)CC[C@@H]5N4CCN(CCO)CC4)cc3)c2)cs1 [Example 180, 2-amino-N-{(1S,2S)-2-[(4-{(1S)-1-[4-(2-hydroxyethyl)piperazin-1-yl]-2,3-dihydro-1H-inden-5-yl}phenyl)methoxy]cyclopentyl}-5-(2-methyl-1,3-thiazol-4-yl)pyridine-3-carboxamide] | < 10 nM | < 10 nM | 10 to 100 nM | – | – | – | – |
| Cc1csc(-c2cnc(N)c(C(=O)N[C@H]3CCC[C@@H]3OCc3ccc(-c4ccc5c(c4)CC[C@@H]5N4CCN(CCO)CC4)cc3)c2)n1 [Example 181, 2-amino-N-{(1S,2S)-2-[(4-{(1S)-1-[4-(2-hydroxyethyl)piperazin-1-yl]-2,3-dihydro-1H-inden-5-yl}phenyl)methoxy]cyclopentyl}-5-(4-methyl-1,3-thiazol-2-yl)pyridine-3-carboxamide] | < 10 nM | < 10 nM | 10 to 100 nM | – | – | – | – |

More lines, main results first:

| IC50 (human MER (528-end); [2]) | IC50 (human AXL (473-end); [3]) | IC50 (human TYRO3 (455-end)) | IC50 (human MER (528-end); [4]) | IC50 (human AXL (473-end); in vitro) | SMILES | % inhibition [1] | % inhibition in the in vivo Ba/F3 pMer ALISA Assay [1] |
| --- | --- | --- | --- | --- | --- | --- | --- |
| < 10 nM | < 10 nM | < 10 nM | < 10 nM | < 10 nM | Cn1cc(-c2cnc(N)c(C(=O)N[C@H]3CCC[C@@H]3OCc3ccc(-c4ccc5c(c4)C(C)(C)CC5N4CCN(CCO)CC4)cc3)c2)cn1 (stereo partly drawn) [Example 83, 2-amino-N-{(1S,2S)-2-[(4-{1-[4-(2-hydroxyethyl)piperazin-1-yl]-3,3-dimethyl-2,3-dihydro-1H-inden-5-yl}phenyl)methoxy]cyclopentyl}-5-(1-methyl-1H-pyrazol-4-yl)pyridine-3-carboxamide] | 58% | 58% |
| < 10 nM | < 10 nM | < 10 nM | – | – | CN1CCN(C2CC(C)(C)c3cc(-c4ccc(CO[C@H]5CCC[C@@H]5NC(=O)c5cc(-c6cnn(C)c6)cnc5N)cc4)ccc32)CC1 (stereo partly drawn) [Example 93, 2-amino-N-[(1S,2S)-2-({4-[3,3-dimethyl-1-(4-methylpiperazin-1-yl)-2,3-dihydro-1H-inden-5-yl]phenyl}methoxy)cyclopentyl]-5-(1-methyl-1H-pyrazol-4-yl)pyridine-3-carboxamide] | 53% | – |
| < 10 nM | < 10 nM | < 10 nM | < 10 nM | < 10 nM | Cn1cc(-c2cnc(N)c(C(=O)N[C@H]3CCC[C@@H]3OCc3ccc(-c4ccc5c(c4)C(C)(C)C[C@@H]5N4CCN(CCO)CC4)cc3)c2)cn1 [Example 103, 2-amino-N-{(1S,2S)-2-[(4-{(1S)-1-[4-(2-hydroxyethyl)piperazin-1-yl]-3,3-dimethyl-2,3-dihydro-1H-inden-5-yl}phenyl)methoxy]cyclopentyl}-5-(1-methyl-1H-pyrazol-4-yl)pyridine-3-carboxamide] | 74% | 74% |
| < 10 nM | < 10 nM | < 10 nM | – | – | CN1CCN([C@H]2CC(C)(C)c3cc(-c4ccc(CO[C@H]5CCC[C@@H]5NC(=O)c5cc(-c6cnn(C)c6)cnc5N)cc4)ccc32)CC1 [Example 144, 2-amino-N-[(1S,2S)-2-({4-[(1S)-3,3-dimethyl-1-(4-methylpiperazin-1-yl)-2,3-dihydro-1H-inden-5-yl]phenyl}methoxy)cyclopentyl]-5-(1-methyl-1H-pyrazol-4-yl)pyridine-3-carboxamide] | 93% | – |
| < 10 nM | < 10 nM | 10 to 100 nM | – | – | CC1(C)C[C@H](N2CCN(CCO)CC2)c2ccc(-c3ccc(CO[C@H]4CCC[C@@H]4NC(=O)c4cc(-c5cccnc5F)cnc4N)cc3)cc21 [Example 159, 6-amino-2′-fluoro-N-{(1S,2S)-2-[(4-{(1S)-1-[4-(2-hydroxyethyl)piperazin-1-yl]-3,3-dimethyl-2,3-dihydro-1H-inden-5-yl}phenyl)methoxy]cyclopentyl}[3,3′-bipyridine]-5-carboxamide] | 89% | – |
